Assay results as given in paper PMC9632963, “Preclinical characterization and phase I clinical trial of CT053PTSA targets MET, AXL, and VEGFR2 in patients with advanced solid tumors” (Frontiers in Immunology, 2022).

Test system: patients with advanced solid tumors
Assay: Phase I trial: safety, tolerability, DLT, MTD (CTCAE v4.0)
Format: in vivo
From the text: Eligible patients had at least one measurable lesion per RECIST v 1.1, Eastern Cooperative Oncology Group (ECOG) performance status of 0 or 1, and adequate hematological, renal, cardiac and hepatic functions. The primary objectives were to assess safety and tolerability as well as to determine the MTD, DLT, and dose recommended for further study. The secondary objectives were to assess the PK and preliminary efficacy of CT053PTSA.
An initial accelerated titration design was used in the 15 and 30 mg QD cohorts, and the “3+3” schema was used starting in the 60 mg QD cohort. […] The study protocol was approved by an institutional review board at Sun Yat-sen University Cancer Center. Written informed consent was obtained from all the patients before enrollment.
Descriptive statistics of safety are presented per CTCAE v4.0. Subjects who received at least one dose of CT053PTSA were considered eligible to be evaluated and included in safety analyses. […] According to the RECIST 1.1 criteria, imaging examinations were performed at each specified time point in the protocol. The antitumor activity was measured by RECIST1.1.

Cc1c(C(=O)Nc2ccc(Oc3ccnc4cc(OCC(C)(C)O)ccc34)c(F)c2)c(=O)n(-c2ccccc2)n1C [CT053PTSA]
2 (40) n (%): Hypertension, All (150mg (n = 5)) | neutropenia, All (150mg (n = 5))
4 (57.1) n (%): Platelet count decreased, All (100mg (n = 7)) | leukopenia, All (100mg (n = 7)) | neutropenia, All (100mg (n = 7))
2 (10) n (%): Diarrhea, All (All (n = 20)) | Hyponatremia, All (All (n = 20)) | Nausea, All (All (n = 20)) | Platelet count decreased, ≥ G3 (All (n = 20)) | Stomatitis, All (All (n = 20))
30%: TRAE any grade: decreased appetite (all patients n = 20) | TRAE any grade: decreased platelet count (all patients n = 20)
20%: TRAE any grade: hypertension (all patients n = 20)
6 (30) n (%): Decreased appetite, All (All (n = 20)) | Platelet count decreased, All (All (n = 20))
9 (45) n (%): leukopenia, All (All (n = 20))
6 (85.7) n (%): transaminase elevation, All (100mg (n = 7))
4 (20) n (%): Hypertension, All (All (n = 20))
4 (80) n (%): transaminase elevation, All (150mg (n = 5))
80%: patients with treatment-related adverse events (TRAEs) (all patients n = 20)
3 (60) n (%): Decreased appetite, All (150mg (n = 5)) | leukopenia, All (150mg (n = 5))
0 n (%): Blood sodium decreased, ≥ G3 (100mg (n = 7)) | Blood uric acid increased, All (100mg (n = 7)) | Blood uric acid increased, ≥ G3 (100mg (n = 7)) | Decreased appetite, ≥ G3 (100mg (n = 7)) | Diarrhea, ≥ G3 (100mg (n = 7)) | Dizziness, ≥ G3 (100mg (n = 7)) | Dry mouth, ≥ G3 (100mg (n = 7)) | Electrocardiogram QT prolonged, ≥ G3 (100mg (n = 7)) | Electrolyte imbalance, All (100mg (n = 7)) | Electrolyte imbalance, ≥ G3 (100mg (n = 7)) | Hemoglobin decreased, All (100mg (n = 7)) | Hemoglobin decreased, ≥ G3 (100mg (n = 7)) | Hypertension, ≥ G3 (100mg (n = 7)) | Hyponatremia, ≥ G3 (100mg (n = 7)) | Hypoparathyroidism, All (100mg (n = 7)) | Hypoparathyroidism, ≥ G3 (100mg (n = 7)) | Mouth ulceration, All (100mg (n = 7)) | Mouth ulceration, ≥ G3 (100mg (n = 7)) | Nausea, ≥ G3 (100mg (n = 7)) | Oropharyngeal pain, ≥ G3 (100mg (n = 7)) | Pain, ≥ G3 (100mg (n = 7)) | Palmar-plantar erythrodysaesthesia syndrome, ≥ G3 (100mg (n = 7)) | Proteinuria, ≥ G3 (100mg (n = 7)) | Pyrexia, All (100mg (n = 7)) | Pyrexia, ≥ G3 (100mg (n = 7)) | Sinus bradycardia, All (100mg (n = 7)) | Sinus bradycardia, ≥ G3 (100mg (n = 7)) | Stomatitis, ≥ G3 (100mg (n = 7)) | Vomiting, All (100mg (n = 7)) | Vomiting, ≥ G3 (100mg (n = 7)) | leukopenia, ≥ G3 (100mg (n = 7)) | neutropenia, ≥ G3 (100mg (n = 7)) | Anaemia, All (150mg (n = 5)) | Anaemia, ≥ G3 (150mg (n = 5)) | Blood chloride decreased, All (150mg (n = 5)) | Blood chloride decreased, ≥ G3 (150mg (n = 5)) | Blood creatinine increased, ≥ G3 (150mg (n = 5)) | Blood potassium decreased, ≥ G3 (150mg (n = 5)) | Blood uric acid increased, ≥ G3 (150mg (n = 5)) | Diarrhea, ≥ G3 (150mg (n = 5)) | Dizziness, All (150mg (n = 5)) | Dizziness, ≥ G3 (150mg (n = 5)) | Dry mouth, All (150mg (n = 5)) | Dry mouth, ≥ G3 (150mg (n = 5)) | Electrocardiogram QT prolonged, ≥ G3 (150mg (n = 5)) | Electrolyte imbalance, ≥ G3 (150mg (n = 5)) | Hemoglobin decreased, ≥ G3 (150mg (n = 5)) | Hyponatremia, All (150mg (n = 5)) | Hyponatremia, ≥ G3 (150mg (n = 5)) | Hypoparathyroidism, ≥ G3 (150mg (n = 5)) | Mouth ulceration, ≥ G3 (150mg (n = 5)) | Nausea, ≥ G3 (150mg (n = 5)) | Oropharyngeal pain, All (150mg (n = 5)) | Oropharyngeal pain, ≥ G3 (150mg (n = 5)) | Pain, All (150mg (n = 5)) | Pain, ≥ G3 (150mg (n = 5)) | Palmar-plantar erythrodysaesthesia syndrome, All (150mg (n = 5)) | Palmar-plantar erythrodysaesthesia syndrome, ≥ G3 (150mg (n = 5)) | Proteinuria, All (150mg (n = 5)) | Proteinuria, ≥ G3 (150mg (n = 5)) | Pyrexia, ≥ G3 (150mg (n = 5)) | Sinus bradycardia, ≥ G3 (150mg (n = 5)) | Vomiting, ≥ G3 (150mg (n = 5)) | neutropenia, ≥ G3 (150mg (n = 5)) | transaminase elevation, ≥ G3 (150mg (n = 5)) | Anaemia, ≥ G3 (All (n = 20)) | Blood chloride decreased, ≥ G3 (All (n = 20)) | Blood creatinine increased, ≥ G3 (All (n = 20)) | Blood potassium decreased, ≥ G3 (All (n = 20)) | Blood uric acid increased, ≥ G3 (All (n = 20)) | Diarrhea, ≥ G3 (All (n = 20)) | Dizziness, ≥ G3 (All (n = 20)) | Dry mouth, ≥ G3 (All (n = 20)) | Electrocardiogram QT prolonged, ≥ G3 (All (n = 20)) | Electrolyte imbalance, ≥ G3 (All (n = 20)) | Hemoglobin decreased, ≥ G3 (All (n = 20)) | Hyponatremia, ≥ G3 (All (n = 20)) | Hypoparathyroidism, ≥ G3 (All (n = 20)) | Mouth ulceration, ≥ G3 (All (n = 20)) | Nausea, ≥ G3 (All (n = 20)) | Oropharyngeal pain, ≥ G3 (All (n = 20)) | Pain, ≥ G3 (All (n = 20)) | Palmar-plantar erythrodysaesthesia syndrome, ≥ G3 (All (n = 20)) | Proteinuria, ≥ G3 (All (n = 20)) | Pyrexia, ≥ G3 (All (n = 20)) | Sinus bradycardia, ≥ G3 (All (n = 20)) | Vomiting, ≥ G3 (All (n = 20)) | neutropenia, ≥ G3 (All (n = 20))
1 (14.3) n (%): Diarrhea, All (100mg (n = 7)) | Dizziness, All (100mg (n = 7)) | Dry mouth, All (100mg (n = 7)) | Electrocardiogram QT prolonged, All (100mg (n = 7)) | Hyponatremia, All (100mg (n = 7)) | Nausea, All (100mg (n = 7)) | Oropharyngeal pain, All (100mg (n = 7)) | Pain, All (100mg (n = 7)) | Palmar-plantar erythrodysaesthesia syndrome, All (100mg (n = 7)) | Platelet count decreased, ≥ G3 (100mg (n = 7)) | Proteinuria, All (100mg (n = 7)) | Stomatitis, All (100mg (n = 7)) | transaminase elevation, ≥ G3 (100mg (n = 7))
60~100 mg QD: recommended dose for further study (in vivo)
10%: grade 3 TRAE: decreased platelet count (all patients n = 20)
15%: patients with grade 3 TRAEs (all patients n = 20)
3 (15) n (%): Electrocardiogram QT prolonged, All (All (n = 20))
35%: TRAE any grade: neutropenia (all patients n = 20)
2 (28.6) n (%): Decreased appetite, All (100mg (n = 7)) | Hypertension, All (100mg (n = 7))
2/4 and Two of four: patients with DLT / patients eligible for DLT assessment (150 mg QD)
1 (20) n (%): Blood creatinine increased, All (150mg (n = 5)) | Blood potassium decreased, All (150mg (n = 5)) | Blood sodium decreased, All (150mg (n = 5)) | Blood sodium decreased, ≥ G3 (150mg (n = 5)) | Blood uric acid increased, All (150mg (n = 5)) | Decreased appetite, ≥ G3 (150mg (n = 5)) | Diarrhea, All (150mg (n = 5)) | Electrocardiogram QT prolonged, All (150mg (n = 5)) | Electrolyte imbalance, All (150mg (n = 5)) | Hemoglobin decreased, All (150mg (n = 5)) | Hypertension, ≥ G3 (150mg (n = 5)) | Hypoparathyroidism, All (150mg (n = 5)) | Mouth ulceration, All (150mg (n = 5)) | Nausea, All (150mg (n = 5)) | Platelet count decreased, All (150mg (n = 5)) | Platelet count decreased, ≥ G3 (150mg (n = 5)) | Pyrexia, All (150mg (n = 5)) | Sinus bradycardia, All (150mg (n = 5)) | Stomatitis, All (150mg (n = 5)) | Stomatitis, ≥ G3 (150mg (n = 5)) | Vomiting, All (150mg (n = 5)) | leukopenia, ≥ G3 (150mg (n = 5))
65%: TRAE any grade: transaminase elevation (all patients n = 20)
95%: patients with at least one adverse event (AE) (all patients n = 20)
100 mg: MTD (oral QD)
7 (35) n (%): neutropenia, All (All (n = 20))
1/6 and one out of six: patients with DLT / patients eligible for DLT assessment (100 mg QD)
45%: TRAE any grade: leukopenia (all patients n = 20)
1 (5) n (%): Anaemia, All (All (n = 20)) | Blood chloride decreased, All (All (n = 20)) | Blood creatinine increased, All (All (n = 20)) | Blood potassium decreased, All (All (n = 20)) | Blood sodium decreased, All (All (n = 20)) | Blood sodium decreased, ≥ G3 (All (n = 20)) | Blood uric acid increased, All (All (n = 20)) | Decreased appetite, ≥ G3 (All (n = 20)) | Dizziness, All (All (n = 20)) | Dry mouth, All (All (n = 20)) | Electrolyte imbalance, All (All (n = 20)) | Hemoglobin decreased, All (All (n = 20)) | Hypertension, ≥ G3 (All (n = 20)) | Hypoparathyroidism, All (All (n = 20)) | Mouth ulceration, All (All (n = 20)) | Oropharyngeal pain, All (All (n = 20)) | Pain, All (All (n = 20)) | Palmar-plantar erythrodysaesthesia syndrome, All (All (n = 20)) | Proteinuria, All (All (n = 20)) | Pyrexia, All (All (n = 20)) | Sinus bradycardia, All (All (n = 20)) | Stomatitis, ≥ G3 (All (n = 20)) | Vomiting, All (All (n = 20)) | leukopenia, ≥ G3 (All (n = 20)) | transaminase elevation, ≥ G3 (All (n = 20))
5%: grade 3 TRAE: decreased appetite (all patients n = 20) | grade 3 TRAE: decreased blood sodium (all patients n = 20) | grade 3 TRAE: elevated transaminase (all patients n = 20) | grade 3 TRAE: hypertension (all patients n = 20) | grade 3 TRAE: leukopenia (all patients n = 20) | grade 3 TRAE: stomatitis (all patients n = 20)
